# In publication PMC6325219, “Preclinical Characterization of NVR 3-778, a First-in-Class Capsid Assembly Modulator against Hepatitis B Virus” (Antimicrobial Agents and Chemotherapy, 2018):
# Read-outs that look alike come from different tables or passages of the source.
# How the values were obtained:
# HBV GT A = experiment: Transient-transfection antiviral study in HepG2 cells, GT A; format: cell-based; conditions: Hepatitis B virus, 72 h, 3 days, intracellular encapsidated rcDNA
# Method: (§1) Cells were cotransfected with the HBV plasmids (100 ng/well) and a Gaussia expression plasmid (10 ng/well) (Thermo Scientific) using the Lipofectamine LTX Plus transfection reagent (Life Technologies). Transfection mixtures were removed after overnight incubation, and cells were treated with serially diluted NVR 3-778 at a final dimethyl sulfoxide (DMSO) concentration of 0.5%. After 3 days of incubation with the compound, the supernatants were collected and secreted Gaussia luciferase was measured using a Gaussia Flash luciferase assay kit (Thermo Scientific). […] Samples were diluted into lysis buffer (Affymetrix) containing 2.5 µg proteinase K (Affymetrix) at 50°C for 40 min. Intracellular encapsidated HBV DNA was denatured for 30 min at 25°C in 0.2 M NaOH (Sigma) and incubated with HBV DNA probes designed to hybridize to the minus-strand HBV DNA (Affymetrix). The denatured DNA was subsequently detected using a QuantiGene assay kit, according to the branched DNA (bDNA) assay recommended by the manufacturer (Affymetrix).
# HBV GT G = experiment: Transient-transfection antiviral study in HepG2 cells, GT G; format: cell-based; conditions: Hepatitis B virus, HepG2, 72 h, read-out: EC50 (mean), HBV GT G
# Method: as §1
# [1] = system: HBV core protein variant T109S; experiment: Transient-transfection antiviral study in HepG2 cells, core variant T109S; format: cell-based, hepatitis B virus
# Method: as §1
# [2] = 28-day twice-daily oral gavage pharmacokinetics in CD1 mice; format: in vivo; conditions: for Cmax / half-life / AUC(0-t) / Tmax: CD1, mouse, plasma, po; for AUC(0-t): after second daily dose, read-out: AUC0–12; for Tmax: relative to second daily dose
# Method: Fed male and female CD1 mice (36/sex/group) were dosed twice a day (BID) by oral gavage with 50, 150, and 500 mg/kg of body weight/dose of NVR 3-778 for 28 days. At different time points after dosing, plasma was analyzed for NVR 3-778 concentration by liquid chromatography-tandem mass spectrometry (LC-MS/MS).
# In vivo pharmacokinetics studies were performed at Covance Laboratories (Madison, Wisconsin), accredited by the Association for Assessment and Accreditation of Laboratory Animal Care (AAALAC). All procedures in the protocols were in compliance with applicable animal welfare acts and were approved by the local Institutional Animal Care and Use Committee (IACUC). For the 28-day study in mice, male and female mice were 6 to 7 weeks old at the initiation of dosing. Environmental conditions, diet, and water were typical for pharmacokinetic and tolerability studies. NVR 3-778 was dosed in a vehicle of 0.5% (wt/vol) hydroxypropyl methylcellulose (Methocel E50 premium)--1% (wt/vol) polysorbate 80 (Tween 80) in reverse osmosis water. Blood samples were collected at 0.25, 0.5, 1, 3, 6, and 12 h after dosing on day 1 and on day 28 of the study into potassium (K2) EDTA. Plasma was harvested and stored at −80°C.
# [3] = Oral bioavailability and pharmacokinetics in beagle dogs; format: in vivo; conditions: for AUC(0-inf): read-out: AUC0–inf (mean)
# Method: After a 7-day washout period, the same two dogs were administered NVR 3-778 by a single oral gavage of the same formulation at 1.5 mg/kg. Blood samples were collected at 0 (predose), 2 min (for the i.v. group only), 5 min, 15 min, and 0.5, 1, 3, 6, 9, and 24 h postdose. The concentration of NVR 3-778 in plasma samples was determined using LC-MS/MS methods.
# HBV = experiment: Effect of human serum on antiviral activity in HepG2.2.15 cells; format: cell-based, hepatitis B virus (GT D); conditions: for EC50 / EC90: Hepatitis B virus, HepG2.2.15, 144 h, HepG2.2.15 cells, 6 days
# Method: To determine the effect of human protein binding on NVR 3-778 antiviral activity, HepG2.2.15 cells were incubated with increasing concentrations of NVR 3-778 in the presence of 0% to 40% human serum.
# In combination studies, cells were treated with compounds either alone or in combination after combining the compounds in a checkerboard format. In studies examining the effect of human serum, serially diluted NVR 3-778 was added into cell culture medium containing 0% to 40% human serum (BioreclamationIVT). Cells were incubated with the compounds for 3 days, after which the medium was removed, fresh medium containing the compounds was added to the cells, and the cells were incubated for another 3 days prior to harvesting of the supernatants or cells for antiviral assays. To quantify intracellular encapsidated rcDNA or encapsidated pgRNA, cells were first solubilized using lysis buffer containing 1% NP-40 and 10 mM CaCl2. The cytoplasmic fraction was then treated with S7 nuclease (6 units) to remove nonencapsidated nucleic acids, after which the S7 nuclease was inactivated by the addition of EDTA (0.5 M). […] The levels of HBV DNA were determined by a bDNA assay as described above (Affymetrix). Supernatants or cell lysates containing HBV RNA were treated with proteinase K (2.5 µg) at 50°C for 40 min, transferred to a capture plate containing HBV RNA probe sets, and hybridized overnight at 55°C. Captured HBV RNA was measured by the addition of a chemiluminescent substrate using a QuantiGene assay (Affymetrix). […] At day 6, the CellTiter-Glo reagent was added to the cells and viability was determined according to the manufacturer’s protocol (Promega). Luminescence signals were measured at 0.2 s using a Victor X4 multimode plate reader (PerkinElmer). […]
# Figure S3. Effect of human serum on NVR 3-778 antiviral activities. HepG2.2.15 cells were incubated with increasing concentrations of NVR 3-778 for 6 days in the presence of 0% (●), 10% […]
# HBV DNA concentrations were determined from supernatant and compared to untreated cells containing the corresponding concentration of human serum. Data points represent mean values from at least three independent antiviral studies, and standard deviations are shown as error bars.
# [4] = parameters: method as in PMID 29079518; conditions: humanized mice; cited from earlier work
# [5] = female, 50 mg/kg, day 1, 50 mg/kg/dose BID oral gavage, F
# [6] = female, 50 mg/kg, day 28, 50 mg/kg/dose BID oral gavage, F
# [7] = female, 150 mg/kg, day 1, 150 mg/kg/dose BID oral gavage, F
# [8] = female, 150 mg/kg, day 28, 150 mg/kg/dose BID oral gavage, F
# [9] = female, 500 mg/kg, day 1, 500 mg/kg/dose BID oral gavage, F
# [10] = female, 500 mg/kg, day 28, 500 mg/kg/dose BID oral gavage, F
# [11] = male, 50 mg/kg, day 1, 50 mg/kg/dose BID oral gavage, M
# [12] = male, 50 mg/kg, day 28, 50 mg/kg/dose BID oral gavage, M
# [13] = male, 150 mg/kg, day 1, 150 mg/kg/dose BID oral gavage, M
# [14] = male, 150 mg/kg, day 28, 150 mg/kg/dose BID oral gavage, M
# [15] = male, 500 mg/kg, day 1, 500 mg/kg/dose BID oral gavage, M
# [16] = male, 500 mg/kg, day 28, 500 mg/kg/dose BID oral gavage, M
# [17] = dog, plasma, iv, single i.v. 0.5 mg/kg, two male beagle dogs
# [18] = dog, plasma, single oral gavage 1.5 mg/kg, two male beagle dogs
# [19] = 2% human serum as printed in the table (text: 20%) versus without human serum
# [20] = 10% human serum versus without human serum
# [21] = 0% human serum, supernatant HBV DNA
# [22] = 2% human serum as printed in the table (text: 20%)
# [23] = 10% human serum, supernatant HBV DNA
# [24] = 40% human serum, supernatant HBV DNA
structure (smiles),measurement,setting,value
O=C(Nc1cc(F)c(F)c(F)c1)c1ccc(F)c(S(=O)(=O)N2CCC(O)CC2)c1 [NVR 3-778],EC50,HBV GT A,0.38 µM
same,EC50,HBV GT G,0.25 µM
same,EC50,"[1]; Hepatitis B virus, HepG2, read-out: EC50, core variant T109S",0.77 ± 0.27 µM
same,"EC50 FC, T109S",[1]; ratio of mean EC50 for core variant over wild-type HBV,3.3 fold
same,Gender differences in NVR 3-778 exposure,"[2]; CD1 mice, Cmax and AUC",less than 2 fold
same,Cmax,"[2]; both sexes, 500 mg/kg, 28-day study, dosed orally at 500 mg/kg BID, 100 µM = 43.2 µg/ml, read-out: Mean Cmax (serum/plasma level reached in mice)",> 100 µM
same,half-life,[2]; [5],2.2 h
same,AUC(0-t),[2]; [5],60.1 µg·h/mL
same,Cmax,"[2]; female, 50 mg/kg, day 1, 50 mg/kg/dose BID oral gavage, F, read-out: Cmax",11.7 µg/mL
same,Tmax,[2]; [5],0.5 h
same,AUC(0-t),[2]; [6],78.8 µg·h/mL
same,Cmax,"[2]; female, 50 mg/kg, day 28, 50 mg/kg/dose BID oral gavage, F, read-out: Cmax",11.5 µg/mL
same,Tmax,[2]; [6],3 h
same,half-life,[2]; [7],4.35 h
same,AUC(0-t),[2]; [7],131 µg·h/mL
same,Cmax,"[2]; female, 150 mg/kg, day 1, 150 mg/kg/dose BID oral gavage, F, read-out: Cmax",22 µg/mL
same,Tmax,[2]; [7],0.5 h
same,half-life,[2]; [8],2.48 h
same,AUC(0-t),[2]; [8],171 µg·h/mL
same,Cmax,"[2]; female, 150 mg/kg, day 28, 150 mg/kg/dose BID oral gavage, F, read-out: Cmax",26.6 µg/mL
same,Tmax,[2]; [8],1 h
same,AUC(0-t),[2]; [9],315 µg·h/mL
same,Cmax,"[2]; female, 500 mg/kg, day 1, 500 mg/kg/dose BID oral gavage, F, read-out: Cmax",41.4 µg/mL
same,Tmax,[2]; [9],0.5 h
same,AUC(0-t),[2]; [10],354 µg·h/mL
same,Cmax,"[2]; female, 500 mg/kg, day 28, 500 mg/kg/dose BID oral gavage, F, read-out: Cmax",40.8 µg/mL
same,Tmax,[2]; [10],3 h
same,AUC(0-t),[2]; [11],70.4 µg·h/mL
same,Cmax,"[2]; male, 50 mg/kg, day 1, 50 mg/kg/dose BID oral gavage, M, read-out: Cmax",12.7 µg/mL
same,Tmax,[2]; [11],1 h
same,AUC(0-t),[2]; [12],87.3 µg·h/mL
same,Cmax,"[2]; male, 50 mg/kg, day 28, 50 mg/kg/dose BID oral gavage, M, read-out: Cmax",11.9 µg/mL
same,Tmax,[2]; [12],3 h
same,half-life,[2]; [13],5 h
same,AUC(0-t),[2]; [13],166 µg·h/mL
same,Cmax,"[2]; male, 150 mg/kg, day 1, 150 mg/kg/dose BID oral gavage, M, read-out: Cmax",25.3 µg/mL
same,Tmax,[2]; [13],1 h
same,AUC(0-t),[2]; [14],157 µg·h/mL
same,Cmax,"[2]; male, 150 mg/kg, day 28, 150 mg/kg/dose BID oral gavage, M, read-out: Cmax",24.2 µg/mL
same,Tmax,[2]; [14],1 h
same,AUC(0-t),[2]; [15],406 µg·h/mL
same,Cmax,"[2]; male, 500 mg/kg, day 1, 500 mg/kg/dose BID oral gavage, M, read-out: Cmax",43 µg/mL
same,Tmax,[2]; [15],1 h
same,half-life,[2]; [16],3.15 h
same,AUC(0-t),[2]; [16],375 µg·h/mL
same,Cmax,"[2]; male, 500 mg/kg, day 28, 500 mg/kg/dose BID oral gavage, M, read-out: Cmax",43.8 µg/mL
same,Tmax,[2]; [16],3 h
same,Circulating species in plasma,"[2]; mice, oral gavage",predominant circulating molecule
same,clearance,[3]; [17],0.366 L/h/kg
same,AUC(0-inf),[3]; [17],1.38 µg·h/mL
same,half-life,"[3]; dog, plasma, iv, single i.v. 0.5 mg/kg, two male beagle dogs, read-out: Mean terminal half-life (converted)",4.1 h
same,Vd,"[3]; dog, plasma, iv, single i.v. 0.5 mg/kg, two male beagle dogs, read-out: Volume of distribution at steady state (Vss) (mean)",1.7 L/kg
same,Cmax,[3]; [18],0.56 µg/mL
same,AUC(0-inf),[3]; [18],3.5 µg·h/mL
same,Circulating species in plasma,"[3]; dogs, oral gavage",predominant circulating molecule
same,bioavailability,"[3]; male, dog, plasma, oral 1.5 mg/kg versus i.v. 0.5 mg/kg, beagle dogs",84.6%
same,EC50 fold shift,HBV; 0% human serum (reference),1
same,EC90 fold shift,HBV; 0% human serum (reference),1.0
same,EC50 fold shift,HBV; [19],9.3
same,EC90 fold shift,HBV; [19],10.3
same,EC50 fold shift,HBV; [20],4.5
same,EC90 fold shift,HBV; [20],4.5
same,EC90 fold shift,HBV; 40% human serum versus without human serum,15.2
same,EC50,HBV; [21],0.4 ± 0.1 µM
same,EC90,HBV; [21],1.5 ± 0.41 µM
same,EC50,HBV; [22],3.7 ± 1 µM
same,EC90,HBV; [22],15.9 ± 6.3 µM
same,EC50,HBV; [23],1.8 ± 0.51 µM
same,EC90,HBV; [23],6.9 ± 0.9 µM
same,EC50,HBV; [24],6.3 ± 2 µM
same,EC90,HBV; [24],23.5 ± 11.6 µM
same,"Plasma trough concentrations, all mice",[4],at least 3 µM
